Results taken from US7087373B2, “Methods for determining plasma free drug concentration by direct measurement of binding affinity of protease inhibitors to plasma proteins” (priority 2001, dated 2006).
Like-named read-outs stand apart in the source and are kept apart here.

Experiments:
[1] = system: AAG (human α1-acid glycoprotein); test: Isothermal titration calorimetry (ITC) of PI binding to AAG; conditions: for Ka to AAG: ITC, Table 2; for Ka: binding to AAG, 37° C., 20 mM phosphate buffer, pH 7.4, average of duplicate experiments; for binding to AAG (titration profile): 80 μM PI into 12 μM, 1.45 mL of AAG
Description: Briefly, the isothermal titration calorimetry (ITC) measurements are designed to obtain primarily the enthalpy of each complex formation and their stoichiometries. The heats of each reaction are determined by integration of the peaks observed. After the contribution from the heat of dilution of each injection is subtracted, the heat is plotted against the molar ratio of PIs to AAG. The binding constant (Ka), enthalpy of binding (ΔH^0), and stoichiometry (N) of the formation of complex are determined by fitting the binding isotherm against the binding equation using an independent binding model. Data analysis may be carried out with, for example, MicroCal ORIGN software, usually provided with the instrument.
Binding experiments were run using Isothermal Titration Calorimetry (ITC) to measure bound and unbound protease inhibitors.
Sample preparation: Solutions of AAG and its variants for ITC experiments were made up in 20 mM […] buffer, pH 7.4. All compounds were prepared as stock solution of 20 mM or 25 mM in DMSO and thereafter diluted to desired concentration in the same buffer. For all ITC experiments, the percentage of DMSO is below 1%.
ITC Experiments: The isothermal titration measurements of the binding of various PIs to AAG can be typically carried out at 37° C. using a VP-ITC titration calorimeter (MicroCal, Northampton, Mass.). The instrument was electrically calibrated by means of a standard electric pulse as recommended by the manufacturer. […] A 300 μL syringe was used for the titrant, mixing was effected by stirring this syringe at 300 rpm during equilibration and experiment. Typically after a preliminary 2 μL injection, 25 injections of 10 μL each were performed with a 250s interval between injections in a single titration. The reference cell of the calorimeter filled with water, acts as a thermal reference to the sample cell. […] All solutions were degassed before titrations to reduce the noise. The buffer contained 20 mM sodium phosphate, pH 7.4.
The area of each peak was integrated and corrected for the PI heat of dilution, which was estimated by a separate experiment by injecting the PI into the buffer. By fitting the titration curve with a nonlinear least-squares method, the enthalpy change ΔH^0, and the binding constant Ka of PI binding to AAG can be estimated with the assumption of an independent binding site model.
The values provided are the average of duplicate experiments. […] The ΔS^0 function was calculated from the standard thermodynamic relation ΔG^0=ΔH^0−TΔS^0.

[2] = system: HIV; test: Antiviral assay in the absence of AAG (Table 2); assay type: cell-based; conditions: Human immunodeficiency virus 1
Source text: In table below, a data table with the binding affinity of 3 PI's to AAG (Ka), their free drug concentrations, calculated IC50s, and calculated efficacy were extracted from the ITC results and compared to IC50s from an antiviral assay in the absence of AAG.

[3] = system: AAG; test: Calculation of IC50 in presence of AAG, free drug concentration and efficacy from ITC Ka; set-up: species or system human; conditions: for Free drug Concentration: calculated from ITC results; for IC50: read-out: Predicted IC50 @ 1 mg/mL AAG, calculated from Ka and IC50 without AAG
Source text: The quantification of the concentration of protease inhibitor in free form maybe performed by direct measurement of binding affinity Kd using isothermal titration calorimetry; and calculating the concentration of protease inhibitor in free form using the formula:
[formula] where Pt and Lt, are total protein and drug concentrations, and Kd is the equilibrium dissociation constant obtained in step (iii).
[formula] where PL is the protein-bound concentration of PIs, L0 and P0 are the total concentration of PIs and plasma protein, Kα and n are the binding constants and number of binding sites, respectively.
The quantification of the antiviral activity or EC50 value of a protease inhibitor in the presence of at least one plasma protein may be performed by direct measurement of binding affinity Ka using isothermal titration calorimetry; and calculating the antiviral activity or EC50 value of the protease inhibitor using the formula: […]
The quantification of the in vivo efficacy of a protease inhibitor in human plasma may be performed by direct measurement of binding affinity Ka using isothermal titration calorimetry; calculating the concentration of protease inhibitor in free form using the formulas described above; and calculating the in vivo efficacy of the protease inhibitor in human plasma using the formula: […]

[4] = system: HIV; test: Cell-based anti-HIV assay (tetrazolium-based, Pauwels et al.) in the absence of AAG and in the presence of 1 mg/mL AAG; conditions: change in experimental EC50, absence of AAG vs presence of 1 mg/mL AAG
Description: The values provided are the average of duplicate experiments. […] The standard free energies (ΔG^0) were obtained from the equation ΔG^0=−RT1nKa, in which the Ka is the binding constant at 37° C. The ΔS^0 function was calculated from the standard thermodynamic relation ΔG^0=ΔH^0−TΔS^0. […] Methods, 1988, 20(4), 309–21.

[5] = system: HIV; conditions: cited from earlier work
[6] = system: HIV; conditions: in vivo, Fischl et al.; extensive protein binding; cited from earlier work
[7] = antiviral assay in the absence of AAG, read-out: IC50

## CC(C)CN(C[C@@H](O)[C@H](Cc1ccccc1)NC(=O)O[C@H]1CO[C@H]2OCC[C@H]21)S(=O)(=O)c1ccc2c(c1)OCO2 [Compound number 2]
[1]
  Ka to AAG: 2.19E+06
[2]; [7]
  IC50: 0.8 nM
[3]
  Free drug Concentration: 1190 nM
  IC50: 22.7 nM

## COc1ccc(S(=O)(=O)N(CC(C)C)C[C@@H](O)[C@H](Cc2ccccc2)NC(=O)OC2CO[C@H]3OCC[C@@H]23)cc1 (some centres unmarked) [Compound number 3]
[1]
  Ka to AAG: 1.24E+06
[2]; [7]
  IC50: 0.5 nM
[3]
  Free drug Concentration: 1710 nM
  IC50: 8.25 nM

## CC(C)c1nc(CN(C)C(=O)N[C@H](C(=O)N[C@@H](Cc2ccccc2)C[C@H](O)[C@H](Cc2ccccc2)NC(=O)OCc2cncs2)C(C)C)cs1 [RTV, ritonavir]
[1]
  Ka: 1.55 ± 0.49 10^6M^−1
[4]
  Fold Inc. EC50: 18.9

## CC(C)CN(C[C@@H](O)[C@H](Cc1ccccc1)NC(=O)OC1CO[C@H]2OCC[C@@H]12)S(=O)(=O)c1ccc(N)cc1 (some centres unmarked) [Compound number 1]
[1]
  Ka to AAG: 1.92E+06
[2]
  IC50: 3 nM
[3]
  Free drug Concentration: 1300 nM
  IC50: 74.6 nM

## Cc1c(O)cccc1C(=O)N[C@@H](CSc1ccccc1)[C@H](O)CN1C[C@H]2CCCC[C@H]2C[C@H]1C(=O)NC(C)(C)C [NFV, nelfinavir]
[1]
  Ka: 2.35 ± 0.42 10^6M^−1
[4]
  Fold Inc. EC50: 22.9

## CC(C)CN(C[C@@H](O)[C@H](Cc1ccccc1)NC(=O)O[C@H]1CCOC1)S(=O)(=O)c1ccc(N)cc1 [APV, amprenavir]
[1]
  binding to AAG (titration profile): binds to AAG accompanied with an exothermic heat effect

## Cc1cccc(C)c1OCC(=O)N[C@@H](Cc1ccccc1)[C@@H](O)C[C@H](Cc1ccccc1)NC(=O)[C@H](C(C)C)N1CCCNC1=O [LPV, lopinavir]
[1]
  Ka: 5.77 ± 0.72 10^6M^−1
[4]
  Fold Inc. EC50: 37.1

## CC(C)(C)NC(=O)[C@@H]1CN(Cc2cccnc2)CCN1C[C@@H](O)C[C@@H](Cc1ccccc1)C(=O)N[C@H]1c2ccccc2C[C@H]1O [IDV, indinavir]
[1]
  binding to AAG (titration profile): does not bind to AAG
  Ka: No binding
[4]
  Fold Inc. EC50: 1.0

## CC(C)[C@H](NC(=O)N(C)Cc1ccccn1)C(=O)N[C@@H](Cc1ccccc1)[C@H](O)[C@H](O)[C@H](Cc1ccccc1)NC(=O)[C@@H](NC(=O)N(C)Cc1ccccn1)C(C)C [A77003]
[5]; in vitro, Bilello et al.
  antiviral efficacy as the concentration of AAG was increased: decreased

## CC(C)(C)NC(=O)[C@@H]1C[C@@H]2CCCC[C@@H]2CN1C[C@@H](O)[C@H](Cc1ccccc1)NC(=O)[C@H](CC(N)=O)NC(=O)c1ccc2ccccc2n1 [SQV, saquinavir]
[1]
  Ka: 0.34 ± 0.12 10^6M^−1
[4]
  Fold Inc. EC50: 5.6

## CC(C)CN(C[C@@H](O)[C@H](Cc1ccccc1)NC(=O)[C@H](CC(N)=O)NC(=O)c1ccc2ccccc2n1)C(=O)NC(C)(C)C [SC-52151, telinavir]
[1]
  Ka: 2.38 ± 0.60 10^6M^−1
[4]
  Fold Inc. EC50: 29.2
[5]; Fischl et al.
  antiretroviral activity in vitro: potent
[6]
  clinical efficacy: lack of clinical efficacy
